Read-outs that look alike come from different tables or passages of the source.
What was measured:
[1] = tested on: MDA-MB-231 human breast adenocarcinoma cell line; test: MTT cell viability assay, MDA-MB-231; assay type: cell-based; settings: 0.01 to 100 μM, read-out: IC50 (μM) ± S.D MDA-MB-231
Method: (§1) The MDA-MB-231 human breast adenocarcinoma cell line (ATCC HTB-26), A549 human lung carcinoma cell line (ATCC CCL-185), TOV-21G human ovarian adenocarcinoma cell line (ATCC CRL-11730), and WI-26VA4 human lung fibroblast cell line (ATCC CCL-95.1) were cultured in RPMI-1640 medium supplemented with 10% fetal bovine serum (FBS) and gentamicin (100 μg/mL). Cells were maintained at 37 °C in a humidified atmosphere containing 5% CO2.
(§2) Cell viability was assessed using the MTT assay (3-[4,5-dimethylthiazol-2-yl]-2,5-diphenyl-tetrazolium bromide). Briefly, 100 μL of complete medium containing 1 × 10^4 cells was added to each well of a 96-well tissue culture plate. Cells were incubated at 37 °C in a humidified atmosphere with 5% CO2 for 24 h prior to treatment. Following medium removal, 100 μL of fresh medium containing the test compounds at concentrations ranging from 0.01 to 100 μM was added to each well, and cells were incubated for 48 h under the same conditions. All compounds were presolubilized in dimethyl sulfoxide (DMSO), and the final DMSO concentration in all treatments was maintained at ≤ 0.2% to avoid interference with cell viability.
(§3) After treatment, the medium was replaced with 100 μL of MTT solution (0.5 mg/mL) per well, followed by a 3 h incubation. Formazan crystals were dissolved by adding 100 μL of DMSO to each well, and absorbance was measured at 550 nm using a microplate reader (SpectraMax M5e, Molecular Devices, Sunnyvale, CA, USA). The percentage of growth inhibition was calculated as [1-(Abs of treated/Abs of control)]×100. All experiments were conducted in triplicate, and results are expressed as mean IC50 values, which were determined using OriginPro 8.0 software (OriginLab Corporation, Northampton, MA, USA).

[2] = tested on: WI-26VA4 human lung fibroblast cell line; test: MTT cell viability assay, WI-26VA4; assay type: cell-based; settings: 0.01 to 100 μM, read-out: IC50 (μM) ± S.D WI-26VA4
Method: as §1, §2, §3

[3] = tested on: A549 human lung carcinoma cell line; test: MTT cell viability assay, A549; assay type: cell-based; settings: 0.01 to 100 μM, read-out: IC50 (μM) ± S.D A549
Method: as §1, §2, §3

[4] = Mass loss (gravimetric) corrosion inhibition test; settings: 2 mmol L–1 inhibitor, 5% (v/v) DMSO in HCl 1 mol L–1, 4 h immersion, relative to solution without inhibitor
Method: SAE 1020 steel plates, with a composition of C (0.18–0.23%), Mn (0.3–0.6%), P (0.03%), and S (0.05%), and dimensions of 2.5 × 2.5 × 0.13 cm, were polished sequentially using emery papers of increasing grit sizes (150, 220, 320, 400 and 600). After polishing, the plates were thoroughly rinsed with deionized (Milli-Q) water.
A control solution was prepared by dissolving 5% (v/v) dimethyl sulfoxide in HCl 1 mol L^–1. Inhibitor-containing solutions were prepared by adding 2 mmol L^–1 of the inhibitor to 5% (v/v) dimethyl sulfoxide in HCl 1 mol L^–1 using deionized (Milli-Q) water. SAE 1020 steel plates were immersed in these solutions for a duration of 4 h.
The gravimetric method was employed to evaluate corrosion resistance by weighing the steel plates before and after immersion in the aqueous HCl solution. The mass loss (w) was calculated as the difference between the average initial mass (m i) and final mass (m f) of each plate (eq ). This information was subsequently used to determine the inhibition efficiency (IE) according to eq , where w 0 and w represent the mass losses in the absence and presence of the inhibitor, respectively. All measurements were performed in triplicate to ensure accuracy and reliability, and the reported values correspond to the average of these three determinations. , 5 w=[…] 6 IE(%)=(w^0−w)/w^0.100

[5] = tested on: TOV-21G human ovarian adenocarcinoma cell line; test: MTT cell viability assay, TOV-21G; assay type: cell-based; settings: 48 h, 0.01 to 100 μM, read-out: IC50 (μM) ± S.D TOV-21G
Method: as §1, §2, §3

Molecule | IC50 ([1]; 48 h) [µM] | IC50 ([2]; 48 h) [µM] | IC50 ([3]; 48 h) [µM] | IE (%) corrosion inhibition efficiency by mass loss [4] [%] | IC50 [5] [µM] | IC50 ([1]; Homo sapiens, MDA-MB-231, 48 h) [µM] | IC50 ([2]; Homo sapiens, WI26VA4, 48 h) [µM] | IC50 ([3]; Homo sapiens, A549, 48 h) [µM] | IC50 ([5]; Homo sapiens, TOV21G) [µM]
2-(nitromethylene)-1,3-diazepine [compound 10] | > 100 | > 100 | > 100 | 91 ± 0.7 | > 100 | – | – | – | –
N#CC(C#N)=C1NCCCCN1 [compound 11, 2-(1,3-Diazepan-2-ylidene)-malononitrile] | – | – | – | 88 ± 0.9 | – | > 100 | > 100 | > 100 | > 100
COC(=O)C(C#N)=C1NCCCCN1 [compound 12, Methyl 2-cyano-2-(1,3-diazepan-2-ylidene)-acetate] | – | – | – | 92 ± 0.6 | – | > 100 | > 100 | > 100 | > 100
CCOC(=O)C(C(=O)OCC)=C1NCCCCN1 [compound 13, Diethyl 2-(1,3-diazepan-2-ylidene)-malonate] | – | – | – | 19 ± 5.4 | – | > 100 | > 100 | > 100 | > 100
N#CC(C(=O)c1ccccc1)=C1NCCCCN1 [compound 14, 2-(1,3-Diazepan-2-ylidene)-3-oxo-3-phenylpropanenitrile] | – | – | – | 94 ± 2.5 | – | > 100 | > 100 | – | > 100
COc1cccc2c1C(=O)c1c(O)c3c(c(O)c1C2=O)C[C@@](O)(C(=O)CO)C[C@@H]3O[C@H]1C[C@H](N)[C@H](O)[C@H](C)O1 [doxorubicin, reference compound] | – | – | – | – | – | 2.6 ± 0.8 | 7 ± 2 | 0.67 ± 0.4 | 8.3 ± 4

From article PMC12612871, “Novel 1,3-Diazepines as Nontoxic Corrosion Inhibitors” (ACS Omega, 2025)
